This passage reports EC50 and CC50 results from US20190375708A1 (VenatoRx Pharmaceuticals, Inc., priority 2018, published 2019).

The subject of series [1] is HBV replication in HepAD38 cells. Kind of series: Anti-HBV replication assay in HepAD38 cells (QPCR of extracellular HBV DNA). Particulars: Hepatitis B virus, 168 h, 7 days incubation, extracellular HBV DNA by QPCR, read-out: Anti-HBV EC50. It counts as cell-based, HBV (genotype D, serotype ayw). In a few lines:
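Tet-off HepAD38, 7-day compound exposure ([…], 1 log10 steps, DMSO vehicle), 37 °C. Extracellular HBV DNA by QPCR, copies/mL via standard curve, % inhibition vs vehicle, EC50 by 4-parameter regression. Entecavir as positive control.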

Series [2] in a line: In vitro cytotoxicity assay (MTT cell viability) in HepG2 cells. The class given is cell-based, human. The conditions noted are these: human. In a few lines:
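HepG2 seeded overnight, then 7-day compound exposure (30 μM–1.0 nM, half-log steps), 37 °C. MTT 3-4 h, DMSO solubilization, A492. % of vehicle → CC50, 4-PL fit.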

As a reminder, the EC50 is the concentration at which the effect is half-maximal. In general, CC50 refers to the concentration at which the toxic effect on the cells reaches its halfway point. A higher CC50 goes with lower toxicity to the cells.

Turning to `Cc1cc(NC(=O)c2c(C)c(C(=O)C(=O)NC3CCN(c4cccnn4)CC3)n(C)c2C)ccc1F` [Example 660, N-(4-fluoro-3-methylphenyl)-1,2,4-trimethyl-5-(2-oxo-2-((1-(pyridazin-3-yl)piperidin-4-yl)amino)acetyl)-1H-pyrrole-3-carboxamide], the EC50 in series [1] is < 0.05 µM. In series [2], the CC50 at 7 days was > 30 µM.
For `Cc1cc(NC(=O)c2c(C)c(C(=O)C(=O)NC3(CN4CCN(c5ccc(Cl)cc5)CC4)CC3)n(C)c2C)ccc1F` [Example 661, 5-(2-((1-((4-(4-chlorophenyl)piperazin-1-yl)methyl)cyclopropyl)amino)-2-oxoacetyl)-N-(4-fluoro-3-methylphenyl)-1,2,4-trimethyl-1H-pyrrole-3-carboxamide] the same measures were < 0.05 µM and 5 to 30 µM.
For `Cc1cc(NC(=O)c2c(C)c(C(=O)C(=O)NC3(CN4CCOCC4)CCCCC3)n(C)c2C)ccc1F` [Example 596, N-(4-fluoro-3-methylphenyl)-1,2,4-trimethyl-5-(2-((1-(morpholinomethyl)cyclohexyl)amino)-2-oxoacetyl)-1H-pyrrole-3-carboxamide] the same measures were < 0.05 µM and > 30 µM.
For `Cc1cc(NC(=O)c2c(C)c(C(=O)C(=O)N[C@@H]3c4ccccc4C[C@@H]3O)n(C)c2C)ccc1F` [Example 258, N-(4-fluoro-3-methylphenyl)-5-(2-(((1R,2S)-2-hydroxy-2,3-dihydro-1H-inden-1-yl)amino)-2-oxoacetyl)-1,2,4-trimethyl-1H-pyrrole-3-carboxamide] the same measures were < 0.05 µM and 5 to 30 µM.
In the case of `Cc1cc(NC(=O)c2c(C)c(C(=O)C(=O)NCCN3CCNC(=O)C3)n(C)c2C)ccc1F` [Example 300, N-(4-fluoro-3-methylphenyl)-1,2,4-trimethyl-5-(2-oxo-2-((2-(3-oxopiperazin-1-yl)ethyl)amino)acetyl)-1H-pyrrole-3-carboxamide], in series [1], the EC50 is 0.05 to 0.499 µM. Further, the CC50 at 7 days in series [2] was > 30 µM.
Take `Cc1c(C(=O)Nc2cc(F)c(F)c(F)c2)c(C)n(C)c1C(=O)C(=O)Nc1ccc(F)c(F)c1` [Example 322, 5-(2-((3,4-difluorophenyl)amino)-2-oxoacetyl)-1,2,4-trimethyl-N-(3,4,5-trifluorophenyl)-1H-pyrrole-3-carboxamide]: the concentration giving a half-maximal response (EC50) in series [1] is < 0.05 µM. The molecule further returned a CC50 at 7 days in series [2] of 5 to 30 µM.
For `Cc1noc([C@@H](C)NC(=O)C(=O)c2c(Cl)c(C(=O)Nc3cnc(F)c(C)c3)c3n2CCC3)n1` [Example 735, (R)-6-chloro-N-(6-fluoro-5-methylpyridin-3-yl)-5-(2-((1-(3-methyl-1,2,4-oxxadiazol-5-yl)ethyl)amino)-2-oxoacetyl)-2,3-dihydro-1H-pyrrolizine-7-carboxamide] the same measures were 0.05 to 0.499 µM and 5 to 30 µM.
For `Cc1cc(NC(=O)c2c(C)c(C(=O)C(=O)NC3(c4cccs4)CCCCC3)n(C)c2C)ccc1F` [Example 633, N-(4-fluoro-3-methylphenyl)-1,2,4-trimethyl-5-(2-oxo-2-((1-(thiophen-2-yl)cyclohexyl)amino)acetyl)-1H-pyrrole-3-carboxamide] the same measures were < 0.05 µM and > 30 µM.
For `Cc1cc(NC(=O)c2c(C)c(C(=O)C(=O)N[C@H]3CC[C@@H](C(=O)O)CC3)n(C)c2C)ccc1F` [Example 279, (1s,4s)-4-(2-(4-((4-fluoro-3-methylphenyl)carbamoyl)-1,3,5-trimethyl-1H-pyrrol-2-yl)-2-oxoacetamido)cyclohexane-1-carboxylic acid] the same measures were 0.05 to 0.499 µM and > 30 µM.
With `Cc1c(C(=O)Nc2cncc(Cl)c2)c(C)n(C)c1C(=O)C(=O)N[C@H](C)C(F)(F)F` [Example 727, (R)-N-(5-chloropyridin-3-yl)-1,2,,4-trimethyl-5-(2-oxo-2-((1,1,1-trifluoropropan-2-yl)amino)acetyl)-1H-pyrrole-3-carboxamide], in series [1], the EC50 was < 0.05 µM. Besides, the CC50 at 7 days in series [2] is > 30 µM.
For `Cc1c(C(=O)Nc2ccnc(F)c2)c(C)n(C)c1C(=O)C(=O)N[C@H](C)C(F)(F)F` [Example 170, (R)—N-(2-fluoropyridin-4-yl)-1,2,4-trimethyl-5-(2-oxo-2-((1,1,1-trifluoropropan-2-yl)amino)acetyl)-1H-pyrrole-3-carboxamide], the EC50 in series [1] was < 0.05 µM. The CC50 at 7 days in series [2] is > 30 µM.
For `Cc1cc(NC(=O)c2c(C)c(C(=O)C(=O)N[C@@H]3CCC[C@H]3O)n(C)c2C)ccc1F` [Example 95, N-(4-fluoro-3-methylphenyl)-5-(2-(((1R,2R)-2-hydroxycyclopentyl)amino)-2-oxoacetyl)-1,2,4-trimethyl-1H-pyrrole-3-carboxamide] the same measures were < 0.05 µM and > 30 µM.
For `Cc1cc(NC(=O)c2cc(C(=O)C(=O)NC3(C)CC(F)(F)C3)n3c2CCCC3)ccc1F` [Example 404, 3-(2-((3,3-difluoro-1-methylcyclobutyl)amino)-2-oxoacetyl)-N-(4-fluoro-3-methylphenyl)-5,6,7,8-tetrahydroindolizine-1-carboxamide] the same measures were 0.05 to 0.499 µM and > 30 µM.
For `Cc1c(C(=O)Nc2ccc(F)c(Cl)c2)c(C)n(C)c1C(=O)C(=O)Nc1ccc(F)c(F)c1` [Example 313] the same measures were < 0.05 µM and 5 to 30 µM.
In the case of `CC[C@H](CO)NC(=O)C(=O)c1c(C)c(C(=O)Nc2ccc(F)c(C)c2)c(C)n1C` [Example 140, (R)-N-(4-fluoro-3-methylphenyl)-5-(2-((1-hydroxybutan-2-yl)amino)-2-oxoacetyl)-1,2,4-trimethyl-1H-pyrrole-3-carboxamide], the EC50 in series [1] is < 0.05 µM. Besides, in series [2], the CC50 at 7 days was > 30 µM.
For `Cc1noc([C@@H](NC(=O)C(=O)c2c(Cl)c(C(=O)Nc3ccc(F)c(C)c3)c3n2CCC3)C(C)C)n1` [Example 543, (S)-6-chloro-N-(4-fluoro-3-methylphenyl)-5-(2-((2-methyl-1-(3-methyl-1,2,4-oxadiazol-5-yl)propyl)amino)-2-oxoacetyl)-2,3-dihydro-1H-pyrrolizine-7-carboxamide] the same measures were < 0.05 µM and > 30 µM.
For `Cc1cc(NC(=O)c2c(C)c(C(=O)C(=O)NCc3nc(C(F)(F)F)no3)n(C)c2C)ccc1F` [Example 243, N-(4-fluoro-3-methylphenyl)-1,2,4-trimethyl-5-(2-oxo-2-(((3-(trifluoromethyl)-1,2,4-oxadiazol-5-yl)methyl)amino)acetyl)-1H-pyrrole-3-carboxamide] the same measures were < 0.05 µM and 5 to 30 µM.
For `Cc1c(C(=O)Nc2ccc(F)c(F)c2)c(C)n(C)c1C(=O)C(=O)NC1(c2nnn[nH]2)CCCC1` [Example 698, 5-(2-((1-(1H-tetrazol-5-yl)cyclopentyl)amino)-2-oxoacetyl)-N-(3,4-difluorophenyl)-1,2,4-trimethyl-1H-pyrrole-3-carboxmide] the same measures were 0.05 to 0.499 µM and > 30 µM.
For `Cc1cc(NC(=O)c2c(C)c(C(=O)C(=O)N[C@H]3CCOC[C@@H]3O)n(C)c2C)ccc1F` [Example 187, N-(4-fluoro-3-methylphenyl)-5-(2-(((3R,4S)-3-hydroxytetrahydro-2H-pyran-4-yl)amino)-2-oxoacetyl)-1,2,4-trimethyl-1H-pyrrole-3-carboxamide], in series [1], the EC50 was > 1 µM. Also, the CC50 at 7 days in series [2] was > 30 µM.
For `CC(C)(C)NC(=O)C(=O)c1cc(C(=O)Nc2ccc(F)c(F)c2)c2n1CCCC2` [Example 398, 3-(2-(tert-butylamino)-2-oxoacetyl)-N-(3,4-difluorophenyl)-5,6,7,8-tetrahydroindolizine-1-carboxamide] the same measures were 0.05 to 0.499 µM and > 30 µM.
Take `Cc1cc(NC(=O)c2c(C)c(C(=O)C(=O)NC3(C(N)=O)CCCC3)n(C)c2C)ccc1F` [Example 38, 5-(2-((1-carbamoylcyclopentyl)amino)-2-oxoacetyl)-N-(4-fluoro-3-methylphenyl)-1,2,4-trimethyl-1H-pyrrole-3-carboxamide]: the EC50 in series [1] is < 0.05 µM. The CC50 at 7 days in series [2] is > 30 µM.
Consider `Cc1cc(NC(=O)c2c(C)c(C(=O)C(=O)NCC(C)(C)O)n3c2CCCC3)cnc1F` [Example 477, N-(6-fluoro-5-methylpyridin-3-yl)-3-(2-((2-hydroxy-2-methylpropyl)amino)-2-oxoacetyl)-2-methyl-5,6,7,8-tetrahydroindolizine-1-carboxamide], for which the half-maximal effective concentration (EC50) in series [1] is > 1 µM. Also, the CC50 at 7 days in series [2] is > 30 µM.
Regarding `Cc1cc(NC(=O)c2c(C)c(C(=O)C(=O)N[C@H]3c4ccccc4C[C@@H]3O)n(C)c2C)ccc1F` [Example 259, N-(4-fluoro-3-methylphenyl)-5-(2-(((1S,2S)-2-hydroxy-2,3-dihydro-1H-inden-1-yl)amino)-2-oxoacetyl)-1,2,4-trimethyl-1H-pyrrole-3-carboxamide], in series [1], the EC50 is < 0.05 µM. For the same molecule, in series [2], the CC50 at 7 days is > 30 µM.
In the case of `Cc1cc(NC(=O)c2c(C)c(C(=O)C(=O)NC3(C)CCN(C(=O)c4ccnn4C)CC3)n(C)c2C)ccc1F` [Example 692, N-(4-fluoro-3-methylphenyl)-1,2,4-trimethyl-5-(2-((4-methyl-1-(1-methyl-1H-pyrazole-5-carbonyl)piperidin-4-yl)amino)-2-oxoacetyl)-1H-pyrrole-3-carboxamide], in series [1], the EC50 is < 0.05 µM. For the same molecule, the CC50 at 7 days in series [2] was > 30 µM.
For `Cc1c(C(=O)Nc2ccc(F)c(Cl)c2)c2n(c1C(=O)C(=O)NCC(C)(C)O)CCCC2` [Example 467, N-(3-chloro-4-fluorophenyl)-3-(2-((2-hydroxy-2-methylpropyl)amino)-2-oxoacetyl)-2-methyl-5,6,7,8-tetrahydroindolizine-1-carboxamide] the same measures were 0.5 to 1 µM and > 30 µM.
